Measurements published in patent US20250051316A1, “2-(ARYL-2-YL) […] […], PREPARATION METHOD THEREFOR AND APPLICATION THEREOF” (SHANGHAI HANSOH BIOMEDICAL CO., LTD., priority 2021, published 2025).
Marks after values point to notes of the source that are not given here.

Key:
[1] = system: C57BL/6 mice, high spontaneous activity induced by phencyclidine (PCP); assay: High spontaneous activity model of mice induced by phencyclidine (PCP); type: in vivo; details: 60 minutes after modeling
From the text: Test Example 2. Pharmacodynamic Evaluation of the Present Compounds in Mice Model of High Spontaneous Activity Induced by Phencyclidine (PCP)
The purpose of the experiment is to evaluate the efficacy of compounds in a high spontaneous activity model of C57BL/6 mice induced by phencyclidine (PCP) using the spontaneous activity method.
C57BL/6 mice, provided by Shanghai Lingchang Biotechnology Co., Ltd., male, 6-8 weeks, 20-24 g, 36 mice.
The day before the experimental test, the animals were placed in the laboratory and acclimated for 8 hours.
On the day of adaptation, the animals were randomly grouped according to their weight.
The animals were weithed and treated with solvent control (20% HP-3-CD), compounds of the present invention (oral administration) respectively. 30 minutes later, modeling (intraperitoneal administration) was performed, and the animals were given physiological saline or phencyclidine, with dosage volume of 10 mL/kg.
After the administration, the animals were placed in observation box and the spontaneous activity was detected for 30 minutes. The moving distance (meters) of the animals in the observation box was counted every 5 minutes.
After 30 minutes, the animals were taken out for modeling and then placed in the observation box to test their spontaneous activity for 60 minutes. The moving distance (meters) of the animals in the observation box was counted every 5 minutes.
Excel software was used to collect data. A Two-Way ANOVA or One-Way ANOVA was conducted used Prism (Graph pad software, Inc.) software. p<0.05 was considered significant difference.

TAAR1 receptor = target: T1, TAAR1 receptor (Homo sapiens, UniProt Q96RJ0); assay: Effect on cAMP content in cells which stably express TAAR1 receptor; type: cell-based
T1 construct: expressed in transfected cells
T1 sequence (Q96RJ0 1-339): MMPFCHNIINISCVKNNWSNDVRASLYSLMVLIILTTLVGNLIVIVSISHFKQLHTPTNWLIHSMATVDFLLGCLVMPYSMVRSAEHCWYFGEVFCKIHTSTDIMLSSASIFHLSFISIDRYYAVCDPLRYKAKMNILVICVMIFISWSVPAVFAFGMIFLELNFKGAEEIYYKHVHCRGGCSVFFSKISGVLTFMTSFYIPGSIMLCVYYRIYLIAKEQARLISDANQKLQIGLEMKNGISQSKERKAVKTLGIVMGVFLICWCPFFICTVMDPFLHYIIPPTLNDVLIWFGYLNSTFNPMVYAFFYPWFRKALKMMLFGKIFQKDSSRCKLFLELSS
Experimental: Test Example1. Determination of the effect of the present compound on cAMP content in cells which stably express TAAR1 receptor
Determination of the activation effect of compounds on TAAR1 receptors.
• 1) Preparation of experimental buffer: 1*HBSS+20 mM HEPES+0.1% BSA+500 μM IBMX. • 2) Complete medium: • Ham's F12K+10% Fetal Bovine Serum+1*Penicillin-Streptomycin+200 μg/mL Hygromycin B for CHO • DMEM+10% Fetal Bovine Serum+1*Penicillin-Streptomycin+200 μg/mL Hygromycin B for HEK293 • 3) TAAR1 cell line was cultured in complete medium at 37° C. and 5% CO2; After TrypLE digestion, the cells were resuspended in the experimental buffer and seeded into a 384 cell culture plate with a density of 8000 cells/15 ul/well. • 4) The compound was diluted with experimental buffer and added 5 μL to each well to culture at 37° C. for 30 minutes. • 5) cAMP-d2 and Anti cAMP Eu3+ were freeze thaw, and diluted 20 times with lysis buffer; 10 μL cAMP-d2 was added to the experimental well, and then 10 μL Anti cAMP Eu3+ was added into the experimental well; the reaction plate was centrifuged at 200 g for 30 seconds at room temperature, and stand at 25° C. for 1 hour; data was collected by Envision.
[formula] • 5) EC50 of compounds was calculated using GraphPad nonlinear fitting formula:
(§1) [formula] • X: Log value of the compound concentration; Y: Activation %

ADRA1A receptor = target: T2, ADRA1A receptor (Homo sapiens, UniProt P35348); assay: Effect on calcium current in cells which stably express ADRA1A receptor; type: cell-based
T2 construct: expressed in transfected cells
T2 sequence (P35348 1-466): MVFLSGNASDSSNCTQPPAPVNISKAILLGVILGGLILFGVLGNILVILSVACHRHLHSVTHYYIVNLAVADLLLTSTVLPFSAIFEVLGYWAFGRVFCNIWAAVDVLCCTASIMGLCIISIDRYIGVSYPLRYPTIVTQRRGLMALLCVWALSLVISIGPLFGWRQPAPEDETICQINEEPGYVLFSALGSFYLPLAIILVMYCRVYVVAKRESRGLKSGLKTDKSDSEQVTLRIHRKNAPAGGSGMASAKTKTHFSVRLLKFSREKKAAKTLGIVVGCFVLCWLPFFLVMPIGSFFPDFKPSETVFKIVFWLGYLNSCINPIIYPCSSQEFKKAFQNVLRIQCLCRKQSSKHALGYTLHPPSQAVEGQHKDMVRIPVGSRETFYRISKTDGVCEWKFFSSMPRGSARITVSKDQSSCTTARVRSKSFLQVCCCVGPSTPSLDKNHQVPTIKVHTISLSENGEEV
Experimental: Test Example 4. Determination of the Effect of the Present Compounds on Calcium Current in the Cells which Stably Express ADRA1A Receptor
Determination of the activation effect of the compounds on ADRA1A receptors.
1) Flp In-CHO-ADRA1A Stable Pool cell lines were cultured in complete medium at 37° C., 5% CO2 to 70%-90% fusion.
2) Complete culture medium: Ham's F12K+10% FBS+1*Penicillin−Streptomycin+600 μg/mL Hygromycin B; Cell inoculation medium: Ham's F12K++10% FBS; Experimental buffer: 1×HBSS+20 mM HEPES
3) After TrypLE digestion, the cells were re-suspended in the inoculation medium and inoculated in 384 well cell culture plate (Corning, 3764). 7000 cells were inoculated into each well and incubated overnight at 37° C. and 5% CO2.
4) 20× Component A was freeze-thaw to room temperature, and then diluted with experimental buffer to 2× working concentration including 5 mM Probenecid, which was then placed at room temperature for use.
5) The cell culture plate was taken out, and let to stand at room temperature for 10 minutes. The plate was subject to inverted centrifugation at 200 g, and RT centrifugation for 1 second, and then 20 μL Assay buffer was quickly added to the cell culture plate. Then 20 μL 2× Component A containing 5 mM Probenecid was added to each experimental well, which was centrifuged by RT at 200 g for 3-5 seconds, and incubated at 37° C. for 2 hours.
6) The working solution (5×) for the compound to be tested was prepared and placed and at room temperature for use.
7) The cell culture plate was taken out and let to stand at room temperature for 10 minutes.
8) 10 μL diluteSd compound working solution in step 6) was added to each the experimental well using FLIPR Tetra and data were collected.
[formula] • 5) EC50 of the compounds was calculated by GraphPad nonlinear fitting formula:
as §1

[2] = compound 1 mg/kg oral + PCP 5 mg/kg i.p.
[3] = compound 3 mg/kg oral + PCP 5 mg/kg i.p.

SMILES | Total distance (m, Mean ± SEM) 60 minutes [1, 2] | Total distance (m, Mean ± SEM) 60 minutes [1, 3] | Total distance (m, Mean ± SEM) 60 minutes ([1]; compound 10 mg/kg oral + PCP 5 mg/kg i.p.) | EC50 (TAAR1 receptor) | EC50 (ADRA1A receptor)
[2H]C1([2H])CO[C@H](c2ccc(F)cc2)CN1 (single isomer, unassigned) [Example 33-1, 2-(4-Fluorophenyl)morpholin-5,5-d2] | 136.4*** m | 126.3*** m | 83.23*** m | 7.9 nM | 1410 nM
[2H]C1([2H])CO[C@@H](c2ccc(F)cn2)CN1 (single isomer, unassigned) [Example 17-2, 2-(5-fluoropyridin-2-yl)morpholin-5,5-d2] | 140.1*** m | 114.1*** m | – | 8.3 nM | 3170 nM
[2H]C1([2H])COC(c2cccc(C)n2)CN1 (single isomer, unassigned) [Example 10-2, 2-(6-Methylpyridin-2-yl)morpholin-5,5-d2] | – | 152.6*** m | – | 5.4 nM | 1170 nM
